≈ marks a conversion by molar mass, not a printed value. Where a SMILES comes first, the peptide text is derived from it. Bridges are numbered along the chain shown (N, C = ends). [ ]: non-standard residue; d: D form. The star is where a group is joined. X1 = O=C(c1ncc(Cl)cc1Cl)*; Dab = NCC[C@H](N)C(=O)O; Abu = CC[C@H](N)C(=O)O; Dap = NC[C@H](N)C(=O)O
Legend:
mouse kidney = conditions: in vivo, 180 mg/kg
Source text: Lesions were rated as follows: mild acute tubular damage with tubular dilation, prominent nuclei and a few pale tubular casts (Grade 1); severe acute tubular damage with necrosis of tubular epithelial cells and numerous tubular casts (Grade 2); acute cortical necrosis/infarction of tubules and glomeruli with or without papillary necrosis (Grade 3). The grades were given the following scores: grade 1=1, grade 2=4, and grade 3=10. The percentage of area of the kidney slice showing histological damage was scored as follows: <1%=0, 1 to <5%=1, 5 to <10%=2, 10 to <20%=3, 20 to <30%=4, 30 to <40%=5, and >40%=6. The overall kidney histological score was calculated as the product of the percentage score and grade score. These scores were then expressed as a semiquantitative score (Kidney Histological Score) on a scale of 0 to +5 for renal histological changes. […]
Lung infection was produced as follows. […] Bacterial burdens in lungs were determined at 2 h after inoculation (untreated controls) and 24 h later (untreated controls and compound-treated mice). […] The bacterial colonies on the agar plate were counted and the log10 CFU/lung in each mouse was calculated (FIG. 1).
The right kidney from each of the treated animals was removed and assessed for histological damage as described for Example 3. […]

[1] = system: Acinetobacter baumannii FADDI-AB034; assay type: cell-based; conditions: FADDI-AB034
Procedure, shortened: (§1)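 Broth microdilution, CAMHB, per CLSI M100-S24; lipopeptides as TFA salts; polymyxin B sulphate control. Read-out: MIC. Strains are polymyxin-susceptible; PA022 and AB034 are MDR clinical isolates.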

[2] = system: Acinetobacter baumannii ATCC 17978; assay type: cell-based; conditions: ATCC 17978
Procedure, shortened: as §1

[3] = system: Klebsiella pneumoniae Kp BM1; assay type: cell-based; conditions: Kp BM1
Procedure, shortened: (§2)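 In cation-adjusted Mueller-Hinton broth, each lipopeptide (TFA salt) was titrated against the bacteria by microdilution and the minimum inhibitory concentration recorded per CLSI M100-S24; polymyxin B sulphate ran in parallel.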

[4] = system: Pseudomonas aeruginosa FADDI-PA022; assay type: cell-based; conditions: FADDI-PA022
Procedure, shortened: as §1

[5] = system: Pseudomonas aeruginosa ATCC 27853; assay type: cell-based; conditions: ATCC 27853
Procedure, shortened: as §1

[6] = system: Pseudomonas aeruginosa FADDI-PA038; assay type: cell-based; conditions: FADDI-PA038
Procedure, shortened: as §1

[7] = system: Enterobacter cloacae FADDI-EC006; assay type: cell-based; conditions: FADDI-EC006
Procedure, shortened: as §1

[8] = system: Klebsiella pneumoniae FADDI-KP032; assay type: cell-based; conditions: FADDI-KP032
Procedure, shortened: as §1

[9] = system: Enterobacter cloacae FADDI-EC001; assay type: cell-based; conditions: FADDI-EC001
Procedure, shortened: as §2

[10] = system: Enterobacter cloacae FADDI-EC003; assay type: cell-based; conditions: FADDI-EC003
Procedure, shortened: as §1

[11] = system: Klebsiella pneumoniae FADDI-KP022; assay type: cell-based; conditions: FADDI-KP022
Procedure, shortened: as §1

[12] = system: Pseudomonas aeruginosa FADDI-PA01; assay type: cell-based; conditions: FADDI-
Procedure, shortened: as §1

SMILES: CC[C@@H]1NC(=O)[C@@H](CC(C)C)NC(=O)[C@H](CCN)NC(=O)[C@@H](NC(=O)[C@H](CN)NC(=O)[C@@H](NC(=O)[C@H](CCN)NC(=O)c2ncc(Cl)cc2Cl)[C@@H](C)O)CCNC(=O)[C@H]([C@@H](C)O)NC(=O)[C@H](CCN)NC(=O)[C@H](CCN)NC1=O [Compound 1] (X1-[Dab]T[Dap][Dab][Dab][dL][Abu][Dab][Dab]T; lactam 4-C)
- histological damage to the kidneys (in words) (mouse kidney): no histological damage
- Minimum inhibitory concentration [1]: 2 µg/mL (≈ 1.72 µM)
- Minimum inhibitory concentration [2]: 2 µg/mL (≈ 1.72 µM)
- Minimum inhibitory concentration [3]: 0.25 µg/mL (≈ 0.215 µM)
- Minimum inhibitory concentration [4]: 1 µg/mL (≈ 0.861 µM)
- Minimum inhibitory concentration [5]: 0.5 µg/mL (≈ 0.431 µM)
- Minimum inhibitory concentration [6]: 1 µg/mL (≈ 0.861 µM)
- Minimum inhibitory concentration [7]: 0.5 µg/mL (≈ 0.431 µM)
- Minimum inhibitory concentration [8]: 0.5 µg/mL (≈ 0.431 µM)
- Minimum inhibitory concentration [9]: <0.125 µg/mL
- Minimum inhibitory concentration [10]: 2 µg/mL (≈ 1.72 µM)
- Minimum inhibitory concentration [11]: <0.125 µg/mL
- Minimum inhibitory concentration [12]: 0.5 µg/mL (≈ 0.431 µM)

Source: patent publication US11225505B2, “Antimicrobial polymyxin derivative compounds” (MONASH UNIVERSITY, priority 2015, dated 2022)
